According to patent US20250082650A1, “COMBINED USE OF MULTIKINASE INHIBITOR” (TRANSTHERA SCIENCES (NANJING), INC., priority 2021, published 2025):

Columns and labels:
[1] = system: mouse colon cancer MC38 subcutaneous homograft tumor; assay: In vivo pharmacodynamic study, MC38 subcutaneous homograft tumor model, combination with PD-L1 antibody; conditions: MC38 tumor-bearing C57BL/6 mice; Compound 1 7.5 mg/kg oral Qd; PD-L1 antibody 5 mg/kg IP Q3d; 25 days
Method: Example 8: In Vivo Pharmacodynamic Study of the Compound of the Present Invention Combined with PD-L1 on Mouse Colon Cancer MC38 Subcutaneous Homograft Tumor Model
MC38 cells: mouse colon cancer cells from ATCC.
(§1) C57BL/6 mice, 6- to 8-week-old, female, from Shanghai Slac Laboratory Animal Co., Ltd.
(§2) PD-L1 antibody: InVivoMAb anti-mouse PD-L1 (B7-H1), clone number: 10F.9G2 (IgG2b), company: BioXcell, Cat. No. BE0101.
MC38 cells were cultured in monolayer in vitro. When the cells were in the exponential growth phase, the cells were harvested, counted, and inoculated.
(§3) 0.04 mL of a cell suspension containing about 3×10^5 MC38 cells was inoculated subcutaneously into the back skin of female C57BL/6 mice. The mice were grouped for administration when the average volume of tumors reached approximately 60 mm^3. Grouping method: Animals were weighed before administration and tumor volumes were measured. Grouping was designed in blocks according to the tumor volume, with 8 mice per group.
Administration was carried out as in Table 6 below.
(§4) Animals were monitored daily for health status and mortality, body weight and tumor volume were measured twice a week, and samples were collected after the last administration. The therapeutic effect of tumor volume was evaluated by TGI %, and the evaluation was conducted as shown in Example 5.

[2] = system: mouse pancreatic cancer Pan02 subcutaneous homograft tumor; assay: In vivo pharmacodynamic study, Pan02 subcutaneous homograft tumor model, combination with PD-L1 antibody; conditions: Pan02 tumor-bearing C57BL/6 mice; Compound 1 7.5 mg/kg oral Qd; PD-L1 antibody 10 mg/kg IP Q3d; 25 days
Method: Example 9: In Vivo Pharmacodynamic Study of the Compound of the Present Invention Combined with PD-L1 on Mouse Pancreatic Cancer Pan02 Subcutaneous Homograft Tumor Model
Pan02 cells: mouse pancreatic cancer cells from ATCC.
as §1
PD-L1 antibody: InVivoMAb anti-mouse PD-L1 (B7-H1), clone number: 10F.9G2 (IgG2b), company: BioXcell, Cat. No. BE0101
Pan02 cells were cultured in monolayer in vitro. When the cells were in the exponential growth phase, the cells were harvested, counted, and inoculated.
as §3, with “0.06” for “0.04”, “1×10^6 Pan02” for “3×10^5 MC38”, “7” for “8”
Administration was carried out as in Table 8 below.
as §4

[3] = system: mouse B cell lymphoma A20 subcutaneous homograft tumor; assay: In vivo pharmacodynamic study, A20 subcutaneous homograft tumor model, combination with PD-L1 antibody; conditions: A20 tumor-bearing Balb/c mice; Compound 1 7.5 mg/kg oral Qd; PD-L1 antibody 10 mg/kg IP Q3d; 19 days
Method: Example 7: In Vivo Pharmacodynamic Study of the Compound of the Present Invention Combined with PD-L1 on Mouse B Cell Lymphoma A20 Subcutaneous Homograft Tumor Model
A20 cells: mouse B cell lymphoma cells from ATCC.
Balb/c mice, 6- to 8-week-old, female, from Zhejiang Vital River Laboratory Animal Technology Co., Ltd.
as §2
A20 cells were cultured in monolayer in vitro. When the cells were in the exponential growth phase, the cells were harvested, counted, and inoculated.
as §3, with “6×10^5 A20” for “3×10^5 MC38”, “Balb/c” for “C57BL/6”
Administration was carried out as in Table 4 below.
as §4

[4] = system: IDO-1 expression in Hela cells; assay: Regulation of IDO protein levels in Hela cells (western blot); type: cell-based; conditions: interferon 50 ng/mL, co-incubation 16 h, 10-10000 nM, FIG. 2
Description: Example 6: Study on Regulation of IDO Protein Levels in Hela Cells by the Compound of the Present Invention
Cells: Hela Cells from Cobioer.
Reagents: DMEM medium, fetal bovine serum, penicillin, streptomycin, […] from SinoBiological, protein loading buffer, RIPA protein lysis buffer, protease inhibitor, BCA protein content assay kit, trihydroxymethyl aminomethane, sodium dodecyl sulfate, ammonium persulfate, 30% Acry-Bis solution, phosphate buffer, Tween 20, bovine serum albumin, GAPDH antibody (rabbit) from CST company, IDO-1 antibody (rabbit) from CST, anti-rabbit secondary antibody from CST, and protein marker.
Cell culture and plating: Hela cells were cultured in a DMEM medium containing 10% fetal bovine serum and 1% penicillin-streptomycin double antibody and incubated in a water-jacketed incubator at 37° C. and 5% CO2. Subculture treatment was carried out in a 1:4 ratio. When the cells were in the exponential growth phase, the cells were harvested, counted, plated at a density of 5×10^5 cells/well in a 6-well cell culture plate, and cultured overnight. […]
Protein content assay and sample configuration: Protein content in each well was measured by using a BCA kit and Nanodrop, and according to the detection result, a sample loading buffer and a lysis buffer were added to adjust to a system of […] of protein/10 μL for sample loading of Western Blot detection. […]

[5] = system: mouse colon cancer cell CT26.wt subcutaneous homograft tumor; assay: In vivo pharmacodynamic study, CT26.wt subcutaneous homograft tumor model, combination with PD-1 antibody; conditions: CT26.wt tumor-bearing Balb/c mice, day 13; Compound 1 15 mg/kg PO QD; PD-1 antibody 10 mg/kg IP BIW; 1-14 days
Description: Example 5: In Vivo Pharmacodynamic Study of the Compound of the Present Invention Combined with PD-1 Antibody on Mouse Colon Cancer Cell CT26.Wt Subcutaneous Homograft Tumor Model
Test sample: compound 1 of the present invention, having a structure shown above.
CT26.wt cells: mouse colon cancer cells from the Cell Bank of the Chinese Academy of Sciences.
Balb/c mice, 6- to 8-week-old, female, from Beijing Vital River Laboratory Animal Technology Co., Ltd.
PD-1 antibody: InVivoMAb anti-mouse PD-1, clone number: RMP1-14, company: BioXcell, Cat. No. BE0146.
CT26.wt cells were cultured in monolayer in vitro under the condition of an RPMI1640 medium supplemented with 10% heat-inactivated fetal bovine serum and 1% penicillin-streptomycin double antibody, and the culture was carried out at 37° C. and 5% CO2. […] When the cells were in the exponential growth phase, the cells were harvested, counted, and inoculated.
0.1 mL of a cell suspension containing about 1×10^6 CT26.wt cells (cells suspended in serum-free basal RPMI1640 medium) was inoculated subcutaneously into the left back skin of female Balb/c mice. […] Grouping method: Animals were weighed before administration and tumor volumes were measured. […]
Animals were monitored daily for health status and mortality, body weight and tumor volume were measured twice a week, and samples were collected after the last administration. […]

[6] = system: endometrial cancer; conditions: PD-1 antibody combined with E7080, endometrial cancer, ASCO 2017 clinical data; cited from earlier work

SMILES | TGI [1] [%] | Tumor volume [1] [mm^3] | TGI [2] [%] | Tumor volume [2] [mm^3] | TGI [3] [%] | Tumor volume [3] [mm^3] | Expression of IDO-1 in Hela cells [4] | TGI (tumor volume inhibition rate) [5] [%] | Tumor volume [5] [mm^3] | Control rate [6] [%]
Cc1[nH]nc2c1N=C(c1ccccc1Cl)c1cnc(N3CCOCC3)cc1N2 [Compound 1, 4-(5-(2-chlorophenyl)-3-methyl-2,10-dihydropyrazolo[4,3-b]pyrido[4,3-e][1,4]diazepin-8-yl)morpholine] | 50 | 554 | 71 | 921 | 26 | 519 | could effectively reduce the expression of IDO-1 | 48 | 1150 ± 142 | 
COc1cc2nccc(Oc3ccc(NC(=O)NC4CC4)c(Cl)c3)c2cc1C(N)=O [Compound E7080] |  |  |  |  |  |  |  |  |  | 96
